Measured values published in patent US8378117B2 (priority 2005, dated 2013).
Read-outs that look alike come from different tables or passages of the source.

Legend:
CB1 receptor = biological target: T1, CB1 receptor (Homo sapiens, UniProt P21554); assay: Binding assay for CB1 agonists or inverse agonists (SK-N-MC membranes, [3H]-CP-55,940)
T1 construct: expressed in transfected cells
Method in brief: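 Membranes from SK-N-MC cells stably expressing human CB1 incubated with compound and [3H]-CP-55,940 ([…]) for 90 min at 30° C in Tris-HCl pH 7.5, MgCl2, EDTA, fatty-acid-free BSA. Non-specific binding defined with 10 uM WIN 55,212; filtration, scintillation count; IC50 by linear regression.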

CB2 receptor = biological target: T2, CB2 receptor (Homo sapiens, UniProt P34972); assay: Binding assay for CB2 agonists or inverse agonists (SK-N-MC membranes, [3H]-CP-55,940)
T2 construct: expressed in transfected cells
T2 sequence (P34972 whole entry): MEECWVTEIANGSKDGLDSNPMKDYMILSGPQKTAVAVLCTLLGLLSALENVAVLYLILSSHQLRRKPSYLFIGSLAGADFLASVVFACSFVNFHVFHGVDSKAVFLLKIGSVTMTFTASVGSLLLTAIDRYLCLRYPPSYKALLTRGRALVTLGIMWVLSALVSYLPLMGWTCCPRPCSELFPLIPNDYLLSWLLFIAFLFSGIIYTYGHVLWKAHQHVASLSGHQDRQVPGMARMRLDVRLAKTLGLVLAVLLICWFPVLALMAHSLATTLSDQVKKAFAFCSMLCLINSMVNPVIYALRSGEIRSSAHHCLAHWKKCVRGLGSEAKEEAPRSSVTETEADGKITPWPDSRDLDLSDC
Method in brief: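 Membranes from SK-N-MC cells stably expressing human CB2 were incubated with radioligand and test compounds for 90 min at 30 °C in Tris-HCl buffer, pH 7.5, with MgCl2, EDTA and fatty-acid-free BSA. Filter-bound radioactivity was counted; IC50 was derived by linear regression of percent inhibition.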

[1] = read-out: CB1 receptor binding percent inhibition, test concentration 0.2 μM (footnote 2)
[2] = test concentration 0.2 μM (footnote 2), read-out: CB2 receptor binding percent inhibition
[3] = read-out: CB2 receptor binding percent inhibition, test concentration 0.2 μM (footnote 2)

T1 sequence (P21554 whole entry): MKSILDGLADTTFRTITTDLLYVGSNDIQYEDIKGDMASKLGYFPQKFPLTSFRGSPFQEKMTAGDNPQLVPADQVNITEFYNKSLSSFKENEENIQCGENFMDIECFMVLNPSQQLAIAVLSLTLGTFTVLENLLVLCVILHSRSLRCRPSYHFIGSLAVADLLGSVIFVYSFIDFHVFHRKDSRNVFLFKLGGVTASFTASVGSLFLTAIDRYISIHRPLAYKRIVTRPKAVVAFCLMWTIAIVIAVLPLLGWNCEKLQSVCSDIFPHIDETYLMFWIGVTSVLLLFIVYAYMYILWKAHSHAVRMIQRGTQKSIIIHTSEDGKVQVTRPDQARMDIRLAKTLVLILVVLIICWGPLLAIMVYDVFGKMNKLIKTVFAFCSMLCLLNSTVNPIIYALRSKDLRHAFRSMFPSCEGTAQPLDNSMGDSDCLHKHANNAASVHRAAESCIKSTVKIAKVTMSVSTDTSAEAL

Row | Structure (SMILES) | inhibition at 0.2 µM (CB1 receptor; [1]) [%] | inhibition at 0.2 µM (CB2 receptor; [2]) [%] | inhibition at 0.2 µM (CB2 receptor; [3]) [%] | inhibition at 0.2 µM (CB1 receptor; read-out: CB1 receptor binding percent inhibition) [%]
1 | C[C@@H](NC(=O)c1nn(-c2ccc(F)cc2F)c2c1CCCCC2Cc1cccc(F)c1)c1ccccc1 (stereo partly drawn) [Cpd 173, 1-(2,4-difluoro-phenyl)-8-(3-fluoro-benzyl)-1,4,5,6,7,8-hexahydro-cycloheptapyrazole-3-carboxylic acid [(1R)-1-phenyl-ethyl]-amide] | 32 | 19 | – | –
2 | C[C@@H](NC(=O)c1nn(C2CCCCC2)c2c1CCCCC2Cc1cccc(F)c1)c1ccccc1 (stereo partly drawn) [Cpd 174, 1-cyclohexyl-8-(3-fluoro-benzyl)-1,4,5,6,7,8-hexahydro-cycloheptapyrazole-3-carboxylic acid [(1R)-1-phenyl-ethyl]-amide] | 0 | 33 | – | –
3 | C[C@@H](NC(=O)c1nn(-c2nccc(C(F)(F)F)n2)c2c1CCCCC2Cc1cccc(Cl)c1)c1ccccc1 (stereo partly drawn) [Cpd 175, 8-(3-chloro-benzyl)-1-(4-trifluoromethyl-pyrimidin-2-yl)-1,4,5,6,7,8-hexahydro-cycloheptapyrazole-3-carboxylic acid [(1R)-1-phenyl-ethyl]-amide] | 30 | 36 | – | –
4 | O=C(N[C@@H](CO)c1ccccc1)c1nn(-c2nccc(C(F)(F)F)n2)c2c1CCCCC2Cc1cccc(Cl)c1 (stereo partly drawn) [Cpd 176, 8-(3-chloro-benzyl)-1-(4-trifluoromethyl-pyrimidin-2-yl)-1,4,5,6,7,8-hexahydro-cycloheptapyrazole-3-carboxylic acid [(1R)-2-hydroxy-1-phenyl-ethyl]-amide] | 4 | 43 | – | –
5 | C[C@@H](NC(=O)c1nn(-c2ccnc3cc(Cl)ccc23)c2c1CCCCC2Cc1cccc(Cl)c1)c1ccccc1 (stereo partly drawn) [Cpd 177, 8-(3-chloro-benzyl)-1-(7-chloro-quinolin-4-yl)-1,4,5,6,7,8-hexahydro-cycloheptapyrazole-3-carboxylic acid [(1R)-1-phenyl-ethyl]-amide] | 4 | 27 | – | –
6 | O=C(N[C@@H](CCl)c1ccccc1)c1nn(-c2nccc(C(F)(F)F)n2)c2c1CCCCC2Cc1cccc(Cl)c1 (stereo partly drawn) [Cpd 178, 8-(3-chloro-benzyl)-1-(4-trifluoromethyl-pyrimidin-2-yl)-1,4,5,6,7,8-hexahydro-cycloheptapyrazole-3-carboxylic acid [(1R)-2-chloro-1-phenyl-ethyl]-amide] | 29 | 29 | – | –
7 | O=C(N[C@H](CCl)c1ccccc1)c1nn(-c2nccc(C(F)(F)F)n2)c2c1CCCCC2Cc1cccc(Cl)c1 (stereo partly drawn) [Cpd 179, 8-(3-chloro-benzyl)-1-(4-trifluoromethyl-pyrimidin-2-yl)-1,4,5,6,7,8-hexahydro-cycloheptapyrazole-3-carboxylic acid [(1S)-2-chloro-1-phenyl-ethyl]-amide] | 0 | 29 | – | –
8 | C[C@@H](NC(=O)c1nn(-c2ccncc2)c2c1CCCC/C2=C\c1ccc(Cl)cc1)C1CCCCC1 [Cpd 180, (8E)-8-(4-chloro-benzylidene)-1-pyridin-4-yl-1,4,5,6,7,8-hexahydro-cycloheptapyrazole-3-carboxylic acid [(1R)-1-cyclohexyl-ethyl]-amide] | 40 | 86 | – | –
9 | C[C@H](NC(=O)c1nn(-c2ccncc2)c2c1CCCC/C2=C\c1ccc(Cl)cc1)C1CCCCC1 [Cpd 181, (8E)-8-(4-chloro-benzylidene)-1-pyridin-4-yl-1,4,5,6,7,8-hexahydro-cycloheptapyrazole-3-carboxylic acid [(1S)-1-cyclohexyl-ethyl]-amide] | 32 | 57 | – | –
10 | O=C(NN1CCCCC1)c1nn(-c2ccncc2)c2c1CCCC/C2=C\c1ccc(Cl)cc1 [Cpd 182, (8E)-8-(4-chloro-benzylidene)-1-pyridin-4-yl-1,4,5,6,7,8-hexahydro-cycloheptapyrazole-3-carboxylic acid piperidin-1-ylamide] | 21 | 31 | – | –
11 | O=C(NN1CCOCC1)c1nn(-c2ccncc2)c2c1CCCC/C2=C\c1ccc(Cl)cc1 [Cpd 183, (8E)-8-(4-chloro-benzylidene)-1-pyridin-4-yl-1,4,5,6,7,8-hexahydro-cycloheptapyrazole-3-carboxylic acid morpholin-4-ylamide] | 0 | 14 | – | –
12 | O=C(N[C@@H](CO)Cc1ccccc1)c1nn(-c2nccc(C(F)(F)F)n2)c2c1CCCCC2Cc1cccc(Cl)c1 (stereo partly drawn) [Cpd 186, 8-(3-chloro-benzyl)-1-(4-trifluoromethyl-pyrimidin-2-yl)-1,4,5,6,7,8-hexahydro-cycloheptapyrazole-3-carboxylic acid [(1R)-1-benzyl-2-hydroxy-ethyl]-amide] | 12 | 58 | – | –
13 | O=C(N[C@@H](CCl)Cc1ccccc1)c1nn(-c2nccc(C(F)(F)F)n2)c2c1CCCCC2Cc1cccc(Cl)c1 (stereo partly drawn) [Cpd 187, 8-(3-chloro-benzyl)-1-(4-trifluoromethyl-pyrimidin-2-yl)-1,4,5,6,7,8-hexahydro-cycloheptapyrazole-3-carboxylic acid [(1R)-1-benzyl-2-chloro-ethyl]-amide] | 12 | 23 | – | –
14 | C[C@H](NC(=O)c1nn(-c2ccccc2Cl)c2c1CCCC/C2=C\c1ccc(Cl)cc1)c1ccccc1 [Cpd 191, (8E)-8-(4-chloro-benzylidene)-1-(2-chloro-phenyl)-1,4,5,6,7,8-hexahydro-cycloheptapyrazole-3-carboxylic acid [(1S)-1-phenyl-ethyl]-amide] | 47 | – | 7 | –
15 | C[C@H](NC(=O)c1nn(-c2ccccc2Cl)c2c1CCCC/C2=C\c1ccc(Cl)cc1)C1CCCCC1 [Cpd 192, (8E)-8-(4-chloro-benzylidene)-1-(2-chloro-phenyl)-1,4,5,6,7,8-hexahydro-cycloheptapyrazole-3-carboxylic acid [(1S)-1-cyclohexyl-ethyl]-amide] | 45 | – | 7 | –
16 | O=C(NN1CCCCC1)c1nn(-c2ccccc2Cl)c2c1CCCC/C2=C\c1ccc(Cl)cc1 [Cpd 193, (8E)-8-(4-chloro-benzylidene)-1-(2-chloro-phenyl)-1,4,5,6,7,8-hexahydro-cycloheptapyrazole-3-carboxylic acid piperidin-1-ylamide] | 43 | 16 | – | –
17 | O=C(NN1CCOCC1)c1nn(-c2ccccc2Cl)c2c1CCCC/C2=C\c1ccc(Cl)cc1 [Cpd 194, (8E)-8-(4-chloro-benzylidene)-1-(2-chloro-phenyl)-1,4,5,6,7,8-hexahydro-cycloheptapyrazole-3-carboxylic acid morpholin-4-ylamide] | 19 | 10 | – | –
18 | C[C@@H](NC(=O)c1nn(-c2cc(Cl)ccc2Cl)c2c1CCCC/C2=C\c1ccc(Cl)cc1)c1ccccc1 [Cpd 195, (8E)-8-(4-chloro-benzylidene)-1-(2,5-dichloro-phenyl)-1,4,5,6,7,8-hexahydro-cycloheptapyrazole-3-carboxylic acid [(1R)-1-phenyl-ethyl]-amide] | – | – | 37 | 63
19 | C[C@@H](NC(=O)c1nn(-c2cc(Cl)ccc2Cl)c2c1CCCC/C2=C\c1ccc(Cl)cc1)C1CCCCC1 [Cpd 196, (8E)-8-(4-chloro-benzylidene)-1-(2,5-dichloro-phenyl)-1,4,5,6,7,8-hexahydro-cycloheptapyrazole-3-carboxylic acid [(1R)-1-cyclohexyl-ethyl]-amide] | 67 | – | 49 | –
